Experimental findings from patent US10646483B2, “Crystal form of imidazolone type compounds, and preparation method, pharmaceutical composition and use thereof” (Foreland Pharma Co., Ltd., priority 2016, dated 2020) are described below.

Data set [1] can be described thus: Test of dissolution rate in distilled water. In kind it is physicochemical. Conditions: 3 mg in 1 ml distilled water, shaken at 20-25° C. for 5 seconds. As for the experimental part:
3 mg each of Crystal Form VII, Crystal Form I, and Crystal Form VI, were weighed, and put into three 1 ml plastic centrifuge tubes, respectively. To each tube was added 1 ml of distilled water and shaken at 20-25° C. for 5 seconds.

A short description of data set [2]: Metabolic experiments after oral (intragastric) administration to SD rats. Conditions: 10 mg/kg; for AUC(0-inf) / AUC(0-t) / MRT / Tmax / Cmax / half-life: rat, po. Type of data set: in vivo. How it is done:
11.392 mg of Crystal Form I of Compound 1 hydrochloride was suspended in […] of 0.5% sodium carboxymethylcellulose, mixed to form a homogenous suspension, and then sonicated for 2 min to give a homogenous suspension having a concentration of 2 mg/mL (the suspension present was prepared on the day of administration, and stored for no more than 4 hours). Three SD rats were intragastrically administered at a dose of 10 mg/kg body weight, and blood analysis was performed at the set time points.

The nature of data set [3]: Solid stability test of Crystal Form I (drug stability test box: high temperature, high humidity, strong illumination). In kind it is physicochemical. An excerpt: A small amount of Crystal Form I of Compound 1 hydrochloride monohydrate of Example I-1 was taken and placed in a drug stability test box. The conditions were controlled as listed in Table 1 for the stability test. The results of the purities and the contents are listed in Table I-1, and the results of the crystal form tests are shown in FIGS. 4 to 6.

The nature of data set [4]: Tableting stability test (XRPD before and after tableting). In kind it is physicochemical. The following applies: manually tableted, 8 mm tablets, ground, FIG. 7. An excerpt: A small amount of Crystal Form I of Compound 1 hydrochloride monohydrate of Example 1 was taken and manually tableted to tablets with a diameter of 8 mm. The tablets were then gently ground. […] The XRPD patterns of the powders before and after the tableting of Crystal Form I were compared.

Where [5] appears, read: SD (Sprague-Dawley), blood, SD rat, Rat 1.
[6] abbreviates: SD (Sprague-Dawley), blood, SD rat, Rat 2.
The mark [7] stands for this setting: SD (Sprague-Dawley), blood, SD rats, Average of three rats.
Setting [8] is: Active Pharmaceutical Ingredient, Initial.
Setting [9] is: Illumination (4500 Lx ± 500 Lx), Day 5.
[10] abbreviates: Illumination (4500 Lx ± 500 Lx), Day 10.
The mark [11] stands for this setting: high temperature, high humidity and strong illumination, up to Day 10.

Like-named read-outs stand apart in the source and are kept apart here. Bounds are passed on as bounds.

In general, AUC(0-inf) refers to total exposure, with the tail of the curve extrapolated. For orientation: AUC(0-t) means exposure summed from dosing to a finite time, without extrapolation to infinity. A word on the MRT: it is a mean duration of stay, worked out from the concentration-time curve. The Tmax is the time at which the peak concentration occurs.

`Cn1cc(-c2ccc(-c3ccc4ncc5c(c4c3)n([C@H]3CC[C@@H](O)CC3)c(=O)n5C)cn2)cn1` [Crystal Form I, 1-((1s,4s)-4-hydroxycyclohexyl)-3-methyl-8-(6-(1-methyl-1H-pyrazol-4-yl)pyridin-3-yl)-1H-imidazo[4,5-c]quinoline-2(3H)-one]: the “time to dissolve completely” value in data set [1] came to 5 h. Besides, the “time to dissolve substantially” value in data set [1] stood at 2 h. The AUC(0-inf) in data set [2] (setting [5]) came to 247 µg·h/mL; in data set [2] (setting [6]) it was 192 µg·h/mL; in data set [2] (setting [7]) it was 201 µg·h/mL; in data set [2] (SD, plasma, SD rat, Rat 3) it was 163 µg·h/mL. Further, the AUC(0-t) in data set [2] (setting [5]) was determined as 235 µg·h/mL; in data set [2] (setting [6]), 183 µg·h/mL; in data set [2] (setting [7]), 191 µg·h/mL; in data set [2] (SD, plasma, SD rat, Rat 3), 154 µg·h/mL; in data set [2] (SD, plasma, SD rats, average value), 191 µg·h/mL. In addition, the MRT came to 6.74 h in data set [2] (setting [5]); 7.13 h in data set [2] (setting [6]); 6.84 h in data set [2] (setting [7]); 6.65 h in data set [2] (SD, plasma, SD rat, Rat 3). Besides, the Tmax in data set [2] (setting [5]) amounted to 2.8 h; in data set [2] (setting [6]), 4 h; in data set [2] (SD, plasma, SD rat, Rat 3), 2.5 h; in data set [2] (SD, plasma, SD rats, Average of three rats), 3.1 h. Moreover, the Cmax in data set [2] (SD (Sprague-Dawley), blood, SD rat, Rat 1, read-out: Cmax) worked out at 19000 ng/mL; in data set [2] (SD (Sprague-Dawley), blood, SD rat, Rat 2, read-out: Cmax), 12100 ng/mL; in data set [2] (SD, plasma, SD rat, Rat 3, read-out: Cmax) it was 12700 ng/mL; in data set [2] (SD, plasma, SD rats, Average of three rats, read-out: Cmax), 14600 ng/mL; in data set [2] (SD, plasma, SD rats, average value, read-out: maximum plasma concentration (Cmax)), 14600 ng/mL. In addition, the half-life in data set [2] (SD (Sprague-Dawley), blood, SD rat, Rat 2, read-out: t½ (converted)) was 324 min; in data set [2] (SD (Sprague-Dawley), blood, SD rat, suspension in 0.5% sodium carboxymethylcellulose, Rat 1, read-out: t½ (converted)), 317 min; in data set [2] (SD, plasma, SD rat, Rat 3, read-out: t½ (converted)), 349 min; in data set [2] (SD, plasma, SD rats, Average of three rats, read-out: t½ (converted)) it was 330 min; in data set [2] (SD, plasma, SD rats, average value, read-out: half-life (converted)) it was 330 min. For the same compound, the “AUC Extr” value in data set [2] (SD rat, Rat 1) is given as 4.72%; in data set [2] (SD rat, Rat 2) it was 4.70%; in data set [2] (SD rat, Rat 3), 5.96%; in data set [2] (SD rats, Average of three rats), 5.13%. The AUC/D in data set [2] (SD rat, Rat 1) is 11758 ng·kg·h/mg/mL; in data set [2] (SD rat, Rat 2), 9171 ng·kg·h/mg/mL; in data set [2] (SD rat, Rat 3), 7675 ng·kg·h/mg/mL; in data set [2] (SD rats, Average of three rats), 9535 ng·kg·h/mg/mL. In addition, the Content % in data set [3] (25° C./95% RH, Day 5) turned out to be 100.86%; in data set [3] (25° C./95% RH, Day 10), 99.61%; in data set [3] (60° C., Day 5), 99.62%; in data set [3] (60° C., Day 10), 99.51%; in data set [3] (setting [8]), 100.41%; in data set [3] (setting [9]) it was 99.84%. This compound came in with a Content % in data set [3] (setting [10]) of 99.50%. The Impurity % in data set [3] (25° C./95% RH, Day 5) stood at 0.72%; in data set [3] (25° C./95% RH, Day 10) it was 0.74%; in data set [3] (60° C., Day 5), 0.73%; in data set [3] (60° C., Day 10) it was 0.79%; in data set [3] (setting [8]), 0.74%; in data set [3] (setting [9]), 0.93%. In data set [3] (setting [10]), this compound yielded an Impurity % of 0.87%. Besides, the Purity % came out at 99.28% in data set [3] (25° C./95% RH, Day 5); 99.26% in data set [3] (25° C./95% RH, Day 10); 99.27% in data set [3] (60° C., Day 5); 99.21% in data set [3] (60° C., Day 10); 99.26% in data set [3] (setting [8]); 99.07% in data set [3] (setting [9]). The compound further showed a Purity % in data set [3] (setting [10]) of 99.13%. The “crystal form (XRPD) after stability test” value in data set [3] (high temperature, high humidity and strong illumination (FIGS. 4 to 6)) is reported as “remains unchanged”. Further, in data set [3] (setting [11]), the “fluctuation of the content” value is at most 1%. Further, the “fluctuation of the purity” value in data set [3] (setting [11]) is at most 0.2%. In addition, the “effect of tableting process on crystal form (XRPD)” value in data set [4] is given as “did not change”.
Take `Cn1cc(-c2ccc(-c3ccc4ncc5c(c4c3)n([C@H]3CC[C@@H](O)CC3)c(=O)n5C)cn2)cn1` [Crystal Form VI, 1-((1s,4s)-4-hydroxycyclohexyl)-3-methyl-8-(6-(1-methyl-1H-pyrazol-4-yl)pyridin-3-yl)-1H-imidazo[4,5-c]quinoline-2(3H)-one]: the “time to dissolve completely” value in data set [1] is over 5 h.
Regarding `Cn1cc(-c2ccc(-c3ccc4ncc5c(c4c3)n([C@H]3CC[C@@H](O)CC3)c(=O)n5C)cn2)cn1` [Crystal Form VII, 1-((1s,4s)-4-hydroxycyclohexyl)-3-methyl-8-(6-(1-methyl-1H-pyrazol-4-yl)pyridin-3-yl)-1H-imidazo[4,5-c]quinoline-2(3H)-one], the “time to dissolve completely” value in data set [1] was at most 0.00278 h.
